Assay results from patent US5565566A (Discovery Therapeutics, Inc., priority 1995, dated 1996).

Assays:
A1 adenosine receptors = target: T1, A1 adenosine receptors (Cavia porcellus, UniProt P47745); test: antagonism of adenosine agonists: reduction in force of contraction of guinea pig atrium (A1)
T1 construct: The left atria from male guinea pigs were isolated; from tissue; host or cells: guinea pig left atrium
T1 sequence (P47745 1-326): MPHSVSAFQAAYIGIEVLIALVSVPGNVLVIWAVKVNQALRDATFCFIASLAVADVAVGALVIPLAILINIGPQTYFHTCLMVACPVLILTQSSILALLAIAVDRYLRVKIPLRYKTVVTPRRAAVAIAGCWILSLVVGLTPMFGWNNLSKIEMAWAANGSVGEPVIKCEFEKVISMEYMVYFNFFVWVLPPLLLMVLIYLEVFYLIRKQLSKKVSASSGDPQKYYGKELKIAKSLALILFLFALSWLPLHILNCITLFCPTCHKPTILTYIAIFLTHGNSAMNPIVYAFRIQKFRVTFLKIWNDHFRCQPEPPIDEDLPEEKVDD
Method: The left atria from male guinea pigs were isolated, suspended between two punctate electrodes, and placed in a 20 ml organ bath that contained Krebs-[…] solution that was continuously gassed with 95% O2 +5% CO2 and maintained at 31° C. The resting tension was one gram. The atria were stimulated electrically at 1 Hz, 1 msec duration pulses at supramaximal voltage. The force of contraction was recorded isometrically. The ability of the compounds to antagonize the effects of agonists was analyzed using modified Schild plots.

A2 adenosine receptors = test: antagonism of adenosine agonists: decrease in contractile tone of guinea pig taenia caecum (A2)
Method: Taenia from the guinea pig caecum were cut into lengths of 1.5-2 cm. The tissues were suspended in a 20 ml organ bath containing de Jalon's solution that was gassed with 95% O2 +5% CO2 and maintained at 31° C. […] The contractile response was measured isotonically. […] The ability of the compounds to antagonize the effects of agonists was analyzed using modified Schild plots.

A1 receptors [1] = target: T2, A1 receptors (Rattus norvegicus, UniProt P25099); test: in vivo test on heart rate / ECG of anesthetized rats
T2 sequence (P25099 1-326): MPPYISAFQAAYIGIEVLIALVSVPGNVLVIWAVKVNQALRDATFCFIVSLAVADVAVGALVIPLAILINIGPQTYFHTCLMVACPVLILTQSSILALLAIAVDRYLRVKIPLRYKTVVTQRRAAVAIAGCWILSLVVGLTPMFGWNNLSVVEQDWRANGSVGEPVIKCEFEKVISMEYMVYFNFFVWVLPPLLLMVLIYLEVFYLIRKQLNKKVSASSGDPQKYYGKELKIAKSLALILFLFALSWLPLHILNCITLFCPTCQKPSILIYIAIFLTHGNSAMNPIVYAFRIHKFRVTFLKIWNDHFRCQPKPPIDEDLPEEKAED
Method: (§1) Rats were anesthetized with urethan and blood pressure was monitored via a carotid cannula. Drug injections were made intravenously through a jugular cannula. Blood pressure, EGC, and heart rate were recorded on a Grass polygraph.

A2 receptors [2] = test: in vivo test on blood pressure of anesthetized rats; settings: prior administration, anesthetized rat
Method: as §1

[3] = target: T3, rat cortical A1 receptors (Rattus norvegicus, UniProt P25099); test: displacement of [3H]-CHA from rat cortical A1 receptors; format: binding; settings: [3H]-CHA; rat cortical A1 receptors; read-out: Rat Cortical Binding Constant Ki
T3 construct: rat cortical membranes were the receptor source; from tissue; host or cells: rat cerebral cortex (male Sprague Dawley) membranes
T3 sequence (P25099 1-326): T2 sequence (P25099 1-326)
Method: (§2) Varying concentrations of test compounds were incubated with the appropriate radioligand and membrane source for 1 hr at room temperature.
(§3) Assays were terminated by filtration over Whatman GF/B filters that had been pre-soaked with 0.1% polyethyleneimine using a 24 port Brandell cell havester. The filters were washed three times with 3 ml of ice cold buffer and transfered to plastic scintillation vials to which 4 ml of Beckman Ready protein scintillation cocktail was added. The tubes were shaken and counted in a Beckman 3801 scintillation counter that converted cpm to dpm.
(§4) Data were analyzed by utilizing the Ligand, commercial computer program (Munson and Rodbard, 1980).
(§5) Male Sprague Dawley rats were killed by decapitation and the brains removed. The cerebral cortices were homogenized in 50 mm Tris; 2mm MgCl2 (pH 7.4), and centrifuged at 40,000×g for 10 minutes. […] The homogenate was centrifuged, washed once, resuspended to a protein concentration of 5-10 mg/ml and frozen at -70° C. until use.

A2 receptors [4] = target: T4, A2 receptors (Bos taurus, UniProt E1BKU0); test: [3H]-NECA binding, bovine caudate membranes (A2); settings: Table 4, with 50 nM cyclopentyl-adenosine
T4 construct: bovine caudate was the source of membranes; from tissue; host or cells: bovine caudate nuclei (membranes)
T4 sequence (E1BKU0 1-401): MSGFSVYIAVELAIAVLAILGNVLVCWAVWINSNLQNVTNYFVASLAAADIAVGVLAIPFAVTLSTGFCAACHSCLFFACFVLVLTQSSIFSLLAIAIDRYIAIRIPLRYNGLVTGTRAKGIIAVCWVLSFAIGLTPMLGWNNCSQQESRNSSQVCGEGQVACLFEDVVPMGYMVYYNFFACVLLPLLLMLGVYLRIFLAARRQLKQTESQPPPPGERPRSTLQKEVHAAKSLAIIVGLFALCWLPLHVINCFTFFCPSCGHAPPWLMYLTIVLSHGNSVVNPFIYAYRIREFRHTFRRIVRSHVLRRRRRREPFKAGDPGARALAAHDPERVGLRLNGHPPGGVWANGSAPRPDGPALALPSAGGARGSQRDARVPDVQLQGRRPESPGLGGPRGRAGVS
Method: Further tests to discover the affinities of test compounds at A2 receptors were conducted.
To provide bovine caudate nuclei, bovine brains were obtained fresh from a local slaughterhouse. The caudate nuclei were dissected out and homogenized in Buffer A (50 mm Tris; 1 mm Na2-EDTA; 5 mm KCl; 1 mm MgCl2; 2 mm CaCl2; pH 7.4) using a Brinkman Polytron. The homogenate was centrifuged at 40,000×g for 20 minutes and washed once. The pellet was resuspended in Buffer A, incubated at 37° C. for 15 minutes, then centrifuged. The pellet was washed once more, resuspended to a protein concentration of 5-10 mg/ml in Buffer A and frozen at -70° C. until use.
as §2, §3, §4

A1 receptors [5] = target: T2, A1 receptors; test: [3H]-CHA binding, rat cortical membranes (A1), selectivity experiment of Table 4; parameters: Rat Brain Membranes; from tissue; host or cells: rat brain (membranes)
Method: as §2, §3, §4, §5

A2 receptors [6] = settings: vs N^6 -substituted adenosine analogs; cited from earlier work
A2 receptors [7] = target: T5, A2 receptors (Rattus norvegicus, UniProt P30543); test: antagonism of NECA-stimulated adenylate cyclase in rat PC12 membranes (B); format: biochemical
T5 construct: Rat PC12 Membranes; endogenous in cells; host or cells: PC12
T5 sequence (P30543 whole entry): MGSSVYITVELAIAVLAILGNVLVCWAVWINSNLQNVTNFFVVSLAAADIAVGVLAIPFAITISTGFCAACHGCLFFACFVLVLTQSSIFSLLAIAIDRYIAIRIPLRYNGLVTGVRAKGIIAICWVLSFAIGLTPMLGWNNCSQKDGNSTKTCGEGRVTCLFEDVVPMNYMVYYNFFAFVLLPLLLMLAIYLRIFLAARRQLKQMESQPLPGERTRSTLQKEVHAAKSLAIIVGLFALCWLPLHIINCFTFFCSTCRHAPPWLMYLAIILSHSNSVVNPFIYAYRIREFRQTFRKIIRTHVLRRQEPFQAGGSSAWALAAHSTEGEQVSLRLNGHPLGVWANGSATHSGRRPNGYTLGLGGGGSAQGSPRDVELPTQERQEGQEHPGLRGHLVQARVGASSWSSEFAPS

[8] = system: adenosine-induced cyclic Amp accumulation in a human fibroblast cell line; settings: low concentrations; cited from earlier work
A1 receptors [9] = target: T2, A1 receptors; test: prevention of R-PIA-induced inhibition of adenylate cyclase in rat fat cell membranes (C); format: biochemical; parameters: from tissue
Method: (§6) For activity at A1 receptors, compounds were tested as inhibitors of the binding of N^6 -[…]-[3H]-Phenylisopropyladenosine in rat brain membranes and for their ability to prevent R-PIA-induced inhibition of adenylate cyclase in rat fat cell membranes.
(C) Rat Fat Cell Membranes

A1 receptors [10] = target: T2, A1 receptors; test: inhibition of binding of [3H]-phenylisopropyladenosine in rat brain membranes (D); parameters: Rat Brain Membranes; from tissue; host or cells: rat brain (membranes)
Method: as §6
(D) Rat Brain Membranes

## Cn1cnc2c(N[C@H]3C[C@H]4CC[C@@H]3C4)ncnc21 (relative stereo) [compound 0861, N^6-(endo-2-Norbornyl)-9-Methyladenine]
A1 adenosine receptors; among the Table 2 examples
  potency ranking as antagonist: the most potent antagonist
A1 adenosine receptors; guinea pig atria
  competitive antagonism at adenosine receptors in the atria: competitive antagonists at adenosine receptors in the atria
A2 adenosine receptors; atrium (A1) vs taenia caecum (A2)
  selectivity for A1 adenosine receptors (functional tissues): selective for A1 adenosine receptors
A2 adenosine receptors; modified Schild plots
  antagonism of the effects of adenosine agonists in relaxing the taenia caecum: did not competitively antagonize the effects of adenosine agonists in relaxing the taenia caecum
A2 adenosine receptors; taenia caecum, high concentrations of the compound
  sensitization of the tissue (larger agonist response): some sensitization of the tissue
A1 receptors [1]
  cardio-selectivity in vivo: cardio-selective adenosine receptor antagonist in vivo
A1 receptors [1]; intravenous
  effects of subsequently administered adenosine on all parameters measured (blood pressure, heart rate, P-R interval): attenuated the effects of subsequently administered adenosine on all parameters measured
  heart block caused by high doses of adenosine: substantially reduced
A1 receptors [1]; prior administration
  effects of NECA on the heart: attenuated the effects of NECA on the heart
A2 receptors [2]
  NECA-induced decrease in blood pressure: minimally affecting the NECA-induced decrease in blood pressure
[3]
  Ki: 0.116 µM
A2 receptors [4]
  Ki: 6.96 µM
A1 receptors [5]; A1 vs A2
  selectivity for A1 receptors over A2 receptors: 170 fold
A1 receptors [5]; Table 4, [3H]-CHA, rat cortical membranes per text
  Ki: 0.041 µM

## CCNC(=O)[C@H]1O[C@@H](n2cnc3c(N)ncnc32)[C@H](O)[C@@H]1O [NECA, 5'-N-ethylcarboxamido-adenosine]
A2 receptors [6]
  potency at A2 receptors: more potent than N^6 -substituted analogs

## Nc1ncnc2nc[nH]c12 [Adenine, reference compound]
A2 receptors [7]
  Kb: 570 µM
[8]
  antagonism of adenosine-induced cyclic Amp accumulation: specific competitive antagonism
A1 receptors [9]
  Kb: > 1000 µM
A1 receptors [10]
  Ki: > 100 µM
